In ChEMBL document CHEMBL1821551, “From fragment screening to in vivo efficacy: optimization of a series of 2-aminoquinolines as potent inhibitors of beta-site amyloid precursor protein cleaving enzyme 1 (BACE1)” (J Med Chem, 2011) one finds Papp data, which are given here for three compounds.

In this data set the test system is human MDR1 (P-gp). The experiment in a line: in vitro. The conditions noted are these: pig, LLC-PK1.

With `Cc1ccccc1-c1ccc2nc(N)c(CC(C)C(=O)NCc3cccnc3)cc2c1` (racemic), the Papp amounted to 16 ×10⁻⁶ cm/s.

The compound `Cc1ccccc1-c1ccc2nc(N)c(C[C@@H](C)C(=O)NCc3ccccc3)cc2c1` had a Papp of 6.5 ×10⁻⁶ cm/s.

The compound `Cc1ccccc1-c1ccc2nc(N)c(CC(C)C(=O)NCc3cncs3)cc2c1` (racemic) had a Papp of 12 ×10⁻⁶ cm/s.

For orientation: Papp means a coefficient for how fast a substance crosses the barrier. High values mean ready permeation, low ones poor permeation.
